# Test results as given in patent US20240350456A1, “COMPOSITIONS AND METHODS FOR DIAGNOSING AND TREATING INFLAMMATORY CONDITIONS” (RUTGERS, THE STATE UNIVERSITY OF NEW JERSEY, priority 2023, published 2024).
# What was measured:
# [1] = system: human-derived Caco-2 cells; test: In vitro transwell screening in Caco-2 cells, barrier disrupted by Clostridium difficile toxin (TEER and FITC-dextran permeability); type: cell-based; conditions: for TEER, indole metabolites (FIG. 22A): applied to the lumen, TOX; for integrated TEER (area under the curve, FIG. 21B): luminal, C. difficile toxin
# From the text: FIG. 20A-20B. In vitro screening of metabolites effective against leaky gut. FIG. 20A, Diagram of the in vitro transwell method used to evaluate efficacy of metabolites in protecting the leaky gut in human-derived Caco-2 cells. The luminal compartment represents the food side, and the basolateral the blood side. FIG. 20B, Transepithelial electrical resistance (TEER) measurements, and FITC-dextran measurements, evaluate the leakiness of the tight junction that regulates the pore (top) and leak (bottom) pathways of the gut. Ions (red), small molecules (blue), FITC-dextran (orange).
# FIG. 21A-21D. Efficacy of tryptophan and vitamin B3 metabolites in protecting the gut barrier in vitro. FIG. 21A, TEER measurements of metabolites placed on luminal side of transwells for 72 hours. After 48 hours, the barrier was disrupted by the toxin of clostrium difficile (Cdiff). FIG. 21B, Integrated results of area under the curve using data from FIG. 21A. FIG. 21C, FITC-dextran permeability analysis of metabolites applied luminally. FIG. 21D, FITC-dextran permeability analysis of metabolites applied basolaterally.
# FIG. 22A-22B. Efficacy of microbiota-derived indole metabolites in protecting the gut barrier. FIG. 22A, Integrated results of TEER measurements of metabolites placed on luminal side of transwells for 72 hours. After 48 hours, the barrier was disrupted by the toxin of clostrium difficile (Cdiff) FIG. 22B, FITC-dextran permeability analysis of metabolites from FIG. 22A applied luminally.
# To perform in vitro screening of the metabolites effective against leaky gut, an in vitro transwell method was used. (FIG. 20A) The efficacy of these metabolites in protecting the leaky gut was analyzed in human-derived Caco-2 cells. Transepithelial electrical resistance (TEER) measurements evaluates the leakiness of the tight junction that regulates the pore (FIG. 20B, top) and leak (FIG. 20B, bottom) pathways of the gut. The higher the TEER, the less permeable the junction is to the movement of ions and small molecules. FITC-dextran is a large polysaccharide with a fluorescent moiety, typically used as a probe to assess the leakiness of the tight junction to large molecules like dextran. The faster the movement of FITC-dextran from lumen to blood, the greater the permeability.
# (FIG. 21A) There was no effect of these metabolites on TEER when applied by themselves. After 48 h, the barrier was disrupted by the toxin of a common “bad” bacteria Clostridium difficile (Cdiff). TEER plummeted with this toxin (TOX, red line) compared to control (Veh, blue line). […] (FIG. 21A)
# [2] = system: ZO-1 (Tjp1) and Ocln; test: Intestinal organoids treated with LPS and metabolites: tight junction (TJ) expression, RT-qPCR and immunostaining; type: cell-based, mouse
# Description: Intestinal organoids were isolated as previously described (Das et al., 2015; Pearce et al., 2018). Briefly, crypts were isolated from small intestine of conventional house C57BL/6 male mice (Taconic Laboratories, Hudson, NY) by shaking in isolation buffer (2 mM EDTA in PBS), then, crypts were harvested, processed, and suspended in crypt culture medium (CCM), which consisted of advanced DMEM/F12 (Life Technologies, Carlsbad, CA) supplemented with serum-free B27 (1:50; Life Technologies), N2 (1:100; Life Technologies), N-acetylcysteine (1 mM; Sigma-Aldrich, St. Louis, MO), recombinant murine epithelial growth factor (EGF, 50 ng/ml; Peprotech, Rocky Hill, NJ), Noggin (100 ng/ml; Peprotech), R-Spondin (500 ng/ml; Peprotech), Glutamax-I supplement (1:100; Life Technologies), penicillin/streptomycin (500 μg/ml; Life Technologies), and HEPES ([…]; Life Technologies). Crypts were resuspended in 70% Matrigel (density ˜450 crypts per dome, 2 domes per well in 24-well plate) and allowed to solidify at 37° C. for 20 min. CCM (1.5 mL) was then added to each well. Cultures were incubated in a humidified incubator at 37° C., and CCM was changed daily. Intestinal organoid treatment with LPS and metabolites
# (§1) We had 2 series of metabolite-treated organoid experiments, i.e., 1) organoid from conventional C57BL6 mice and 2) Ocln KO and littermate WT control as a gift from Prof. Jerrold Turner (Harvard University). […] Seeding is designated as day 0. On day 3 of culture, the existing media in the wells were completely removed before adding treatments. LPS (1 μg/mL) with or without metabolites, i.e., IPA (0.1 mM) (Li et al., 2021), IAM (200 μM) (Vyhlidalova et al., 2020), MNA (12 ng/ml) (Liu et al., 2015), CARN (20 mM) (Boldyrev et al., 2013) or ASA (1 μM) (Erez et al., 2011) were each added in CCM at known physiological concentrations, incubated for 48 hours, thereafter, organoid was harvested for RNA extraction, and paraformaldehyde fixation for immunostaining.
# (§2) Total RNA was extracted from the intestinal organoids using a commercially available kit (RNeasy Microkit; Qiagen, MD, Cat. #74004) following manufacturer's instructions. mRNA samples were converted to cDNA using Bio-Rad's iScript Reverse Transcription Supermix for RT-qPCR (Bio-Rad Laboratories, Hercules, CA, Cat. #1708840). cDNA was then used for RT-qPCR (Mx3000P. Stratagene, La Jolla, CA) to analyze several genes using Maxima SYBR Green qPCR Master Mix (Thermo Fisher Scientific, Waltham, MA) and primers (Integrated DNA Technologies, Coralville, IA). Thermal profile for three-step cycling was 10 min at 95° C. for initial denaturation; then 40 cycles of 15 sec at 95° C. for denaturation, 30 sec at 65° C. for annealing, and 30 sec at 75° C. for extension. Primers used are as follows: β-actin (Actb), forward 5′-[…]-3′ (SEQ ID NO: 5), reverse 5′-[…]-3′ (SEQ ID NO: 6); ZO-1 (Tjp1), forward 5′-[…]-3′ (SEQ ID NO: 7), reverse 5′-[…]-3′ (SEQ ID NO: 8), Ocln, forward 5′-[…]-3′ (SEQ ID NO: 9), reverse 5′-[…]-3′ (SEQ ID NO: 10); Lyz1, forward 5′-ATGGCTACCGTGGTGTCAAG-3′ (SEQ ID NO: 11), reverse 5′-CGGTCTCCACGGTTGTAGTT-3′ (SEQ ID NO: 12); Tff3, forward 5′-TAATGCTGTTGGTGGTCCTG-3′ (SEQ ID NO: 13), reverse 5′-CAGCCACGGTTGTTACACTG-3′ (SEQ ID NO: 14). All samples were normalized to β actin expression. Gene expression levels are depicted as fold change relative to the control group.
# (§3) Immunocytochemistry followed earlier work (Pearce et al., 2018). Briefly, organoids were extracted from Matrigel by using cell recovery solution (Corning, Cat. No. 354253), processed then fixed in 4% paraformaldehyde for 15 min and dehydrated with 70% ethanol and kept in 4° C. until embedded in paraffin. On the day of embedding, organoids were gently spun down to a pellet (250 g for 5 min), then the supernatant was removed, the pellet resuspended in agarose and embedded in paraffin. […]
# [3] = system: Tff3 and Lyz1 (goblet and Paneth cells); test: Organoids: goblet and Paneth cell transcripts (Tff3, Lyz1) and cell numbers; type: cell-based, mouse; conditions: enteroids
# Description: as §1, §2, §3
Structure (SMILES),"TEER, indole metabolites (FIG. 22A) [1]","integrated TEER (area under the curve, FIG. 21B) [1]",also measured
N#CCc1c[nH]c2ccccc12 [Indole-3-acetonitrile],clearly protective against TOX-induced decreases in TEER,,
"O=C(O)c1c[nH]c2ccccc12 [Indole-3-carboxylic.acid, indole-3-carboxylic acid]",clearly protective against TOX-induced decreases in TEER,,
"O=C(O)CCc1c[nH]c2ccccc12 [Indole-3-propionic.acid, indole-3-propionic acid]",clearly protective against TOX-induced decreases in TEER,,"gene expression of Ocln ([2]; ex vivo, in the presence of the barrier disruptor): increased gene expression of Ocln; TJ expression at the protein and mRNA levels ([2]; in the presence of LPS (1 μg/mL), 48 hr): increased TJ expression; goblet and Paneth cell transcripts and cell numbers [3]: reduced goblet and Paneth cell transcripts as well as cell numbers"
"O=C(O)C(O)Cc1c[nH]c2ccccc12 (stereo not shown) [Indolelactic.acid, indole-3-lactic acid]",clearly protective against TOX-induced decreases in TEER,,
NC(=O)c1ccc[n+]([C@@H]2O[C@H](COP(=O)([O-])OP(=O)(O)OC[C@H]3O[C@@H](n4cnc5c(N)ncnc54)[C@H](O)[C@@H]3O)[C@@H](O)[C@H]2O)c1 [NAD],,protected the cells from barrier disruption by TOX,
"NC(=O)c1cccnc1 [NAM, nicotinamide]",,protected the cells from barrier disruption by TOX,
"NC(=O)c1ccc[n+]([C@@H]2O[C@H](CO)[C@@H](O)[C@H]2O)c1 [Nicotinamide.riboside, nicotinamide riboside]",,protected the cells from barrier disruption by TOX,
